# pEC50: −log10 of the molar value. *1 amine or outer side, *2 acyl side, *3 side chain or, on linkers, in order; H or OH if unused. Where a SMILES comes first, the peptide text is derived from it. Bridges are numbered along the chain shown (N, C = ends). [ ]: non-standard residue; d: D form. The star is where a group is joined. C20 diacid = O=C(O)CCCCCCCCCCCCCCCCCCC(=O)*; γGlu = O=C(O)[C@H](CCC(=O)[*:2])N[*:1]; Hyp = O=C(O)[C@@H]1C[C@@H](O)CN1; NMeI = CC[C@H](C)[C@H](NC)C(=O)O; Sar = CNCC(=O)O
# Columns and labels:
# [1] = target: T1, human calcitonin receptor (hCTR2) (Homo sapiens, UniProt P30988); experiment: hCTR2 cAMP assay (AlphaScreen) in COS7 cells; format: cell-based; conditions: cAMP induction, COS7 cells expressing hCTR2; Table 1; read-out: hCTR2 EC50
# T1 construct: expressed in transfected cells
# T1 sequence (P30988 25-474): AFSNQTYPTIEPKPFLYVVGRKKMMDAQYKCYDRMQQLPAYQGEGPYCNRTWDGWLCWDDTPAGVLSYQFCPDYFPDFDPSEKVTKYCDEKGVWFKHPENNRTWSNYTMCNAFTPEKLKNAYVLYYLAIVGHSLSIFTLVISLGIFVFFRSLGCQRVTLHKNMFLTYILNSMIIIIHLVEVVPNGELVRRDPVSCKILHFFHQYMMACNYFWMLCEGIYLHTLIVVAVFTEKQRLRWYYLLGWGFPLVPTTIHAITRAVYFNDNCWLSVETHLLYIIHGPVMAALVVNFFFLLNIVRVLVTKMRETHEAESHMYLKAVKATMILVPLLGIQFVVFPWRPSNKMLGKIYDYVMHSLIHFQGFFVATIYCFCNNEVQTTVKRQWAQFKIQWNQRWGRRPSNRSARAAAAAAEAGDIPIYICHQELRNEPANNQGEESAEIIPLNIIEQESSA
# Outline: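 cAMP induction, read by AlphaScreen after lysis, gives EC50 values via 4PL curve fitting. Peptides were applied at rising concentrations for 15 min at 37 °C, with IBMX and 0.1% casein in HEPES-buffered Tyrode pH 7.4, to COS7 cells (no endogenous RAMPs) stably expressing human CTR2.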
# [2] = target: T2, human amylin receptor 3 (hAMYR3), hCTR2 co-expressed with hRAMP3 (Homo sapiens, UniProt O60896+P30988); experiment: hAMYR3 cAMP assay (AlphaScreen) in COS7 cells; format: cell-based; conditions: cAMP induction, COS7 cells expressing hAMYR3; Table 1; read-out: hAMYR3 EC50
# T2 construct: expressed in transfected cells
# T2 sequence (P30988 25-474): T1 sequence (P30988 25-474)
# T2 sequence (O60896 24-148 partner): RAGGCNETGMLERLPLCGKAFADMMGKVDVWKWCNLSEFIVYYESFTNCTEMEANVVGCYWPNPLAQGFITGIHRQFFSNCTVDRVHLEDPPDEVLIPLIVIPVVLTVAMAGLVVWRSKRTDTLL
# From the text: The cell line COS7, originating from African Green Monkey kidney fibroblast cells, was used for establishment of the stable cell lines described below. The COS7 cellular background was used due to it being RAMP naïve, and as such it provides the best available system for testing of the monomeric hCTR and different heterodimeric amylin receptor subtypes functionally generated by introduction of the individual RAMPs.
# A cell line expressing the human amylin receptor 3 (hAMYR3) was generated in the COS7 cellular background as stable clones. In brief, hCTR2 (GI:4502547) and hRAMP3 (GI:118572586) were amplified by PCR using primers encoding terminal restriction sites for subcloning. The 5′-end primers additionally encoded a near Kozak consensus sequence to ensure efficient translation. The fidelity of the DNA encoding the receptor was confirmed by DNA sequencing. The PCR products encoding the receptor were subcloned into a proprietary tri-cistronic mammalian expression vector with RAMP3, hCTR2 and neomycin (G418) resistance marker. The mammalian expression vector encoding the receptor was transfected into COS7 cells by a standard liposome transfection method. 48 hours post-transfection, cells were seeded for limited dilution cloning and selected with 1 mg/ml G418 in the culture medium. After 3 weeks, surviving colonies of hAMY3R-expressing cells were picked, propagated and tested in the amylin efficacy assay as described in Example 3 below. The functional generation of the amylin receptor phenotype was verified in the efficacy assay by a left-shifted efficacy response to amylin relative to monomeric calcitonin receptor, and one hAMYR3-expressing clone was chosen for compound profiling.
# In vitro activity of test peptides at the hCTR2 and hAMYR3 receptors was assessed by measuring the induction of cAMP following stimulation of the receptor using the AlphaScreen® cAMP Assay kit from Perkin-Elmer.
# Briefly, COS7 cells expressing hCTR2 (see Example 2, above) were seeded at 30-40,000 cells per well in 96-well microtiter plates coated with 0.01% poly-L-lysine, and grown for 1 day in culture in 100 μl growth medium [DMEM, 10% FCS, Penicillin (100 IU/ml), Streptomycin (100 μg/ml)]. On the day of analysis, growth medium was removed and the cells were washed once with 200 μl Tyrode buffer [Tyrode's Salts (9.6 g/I), 10 mM HEPES, pH 7.4]. Cells were incubated in 100 μl Tyrode buffer containing increasing concentrations of test peptides, 100 µM IBMX and 0.1% casein for 15 min at 37° C. The reaction was stopped by carefully decanting off the compound/buffer medium and replacing it with lysis/detection buffer (80 μl 0.1% w/v BSA, 5 mM HEPES, 0.3% v/v Tween-20 in deionized water). After incubation at room temperature for 10 min., the cAMP content of the resulting cell lysate was estimated according to the AlphaScreen® cAMP Assay manufacturer's instructions. EC50 values were estimated by computer-aided curve fitting using the 4-parameter logistic (4PL) non-linear model.
# [3] = Assessment of physical stability (Thioflavin T fibrillation); format: physicochemical; set-up: key: FND = fibrillation not detected; FD = fibrillation detected; conditions: 1 mg/ml, 40° C., ThT
# Outline: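 Fibrillation lag-time, in hours, taken where regressions of the initial stable phase and the growth phase intersect. ThT (40 μM) fluorescence monitored at 40 °C for 96 h, 10-min reads each preceded by 300 s mixing. Peptide at 1 mg/ml in 50 mM buffers: phosphate or histidine pH 7.0, acetate pH 4.0.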
# [4] = Assessment of chemical stability (RP-HPLC normalized purity); format: physicochemical; conditions: 7 days, 40° C., Table 1
# Outline: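 Purity after 7 days at 40° C is expressed relative to T=0 (set to 100) for each pH. Samples at 0.2 mg/ml, pH 4, 6, 7.5 or 9, analyzed by RP-HPLC with UV 220 nm on C8 (ammonium formate) or C18 (TFA) gradients.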
pEC50 [1],pEC50 [2],"Fibrillation pH 4.0 (Ac) ([3]; 50 mM acetate buffer pH 4.0, 96 hours)","Fibrillation pH 7.0 (His) ([3]; 50 mM histidine buffer pH 7.0, 96 hours)","Fibrillation pH 7.0 (Phos.) ([3]; 50 mM phosphate buffer pH 7.0, 96 hours)","Normalized purity after 7 days, 40° C., pH 4 ([4]; pH 4, 0.2 mg/ml)","Normalized purity after 7 days, 40° C., pH 6 ([4]; pH 6, 0.2 mg/ml)","Normalized purity after 7 days, 40° C., pH 7.5 ([4]; pH 7.5, 0.2 mg/ml)","Normalized purity after 7 days, 40° C., pH 9 ([4]; pH 9, 0.2 mg/ml)",Compound
10.40,10.15,–,–,–,–,–,–,–,"CC[C@H](C)[C@@H](C(=O)N[C@@H](CC(C)C)C(=O)N[C@@H](CO)C(=O)N[C@@H](CO)C(=O)N[C@H](C(=O)N[C@@H](CCC(=O)O)C(=O)N[C@H](C(=O)NCC(=O)N[C@@H](CO)C(=O)N[C@@H](CO)C(=O)N[C@H](C(=O)N1CCC[C@H]1C(N)=O)[C@@H](C)O)C(C)C)[C@@H](C)O)N(C)C(=O)[C@H](C)NC(=O)CN(C)C(=O)[C@H](Cc1ccccc1)NC(=O)[C@H](CO)NC(=O)[C@H](CO)NC(=O)[C@H](CCCNC(=N)N)NC(=O)[C@H](Cc1c[nH]cn1)NC(=O)[C@H](CC(C)C)NC(=O)[C@H](Cc1ccccc1)NC(=O)[C@H](Cc1c[nH]cn1)NC(=O)[C@H](C)NC(=O)[C@H](CC(C)C)NC(=O)[C@H](CCCNC(=N)N)NC(=O)[C@H](CCC(=O)O)NC(=O)[C@@H](NC(=O)[C@H](C)NC(=O)[C@@H]1CSSC[C@H](NC(=O)[C@H](CCCNC(=N)N)NC(=O)CC[C@H](NC(=O)CCCCCCCCCCCCCCCCCCC(=O)O)C(=O)O)C(=O)NCC(=O)N[C@@H]([C@@H](C)O)C(=O)N[C@@H](C)C(=O)N[C@@H]([C@@H](C)O)C(=O)N1)[C@@H](C)O [Compound 37, [19CD]-isoGlu-R-C( )-GTAT-C( )-ATERLAHFLHRSSF-Gly(Me)-A-Ile(Me)-LSSTEVGSSTP-NH2] ({C20 diacid-γGlu}-RCGTATCATERLAHFLHRSSF[Sar]A[NMeI]LSSTEVGSSTP-NH2; disulfide 2-7)"
–,9.59,FND,FND,FND,A (A = >90%),A (A = >90%),A (A = >90%),A (A = >90%),"CC[C@H](C)[C@@H](C(=O)N[C@@H](CC(C)C)C(=O)N[C@@H](CO)C(=O)N[C@@H](CO)C(=O)N[C@H](C(=O)N[C@@H](CCC(=O)O)C(=O)N[C@H](C(=O)NCC(=O)N[C@@H](CO)C(=O)N[C@H](C(=O)N[C@H](C(=O)N1C[C@H](O)C[C@H]1C(N)=O)[C@@H](C)O)[C@@H](C)O)C(C)C)[C@@H](C)O)N(C)C(=O)[C@H](C)NC(=O)CN(C)C(=O)[C@H](Cc1ccccc1)NC(=O)[C@H](CO)NC(=O)[C@H](CO)NC(=O)[C@H](CCCNC(=N)N)NC(=O)[C@@H](NC(=O)[C@H](CC(C)C)NC(=O)[C@H](Cc1ccccc1)NC(=O)[C@H](Cc1c[nH]cn1)NC(=O)[C@H](C)NC(=O)[C@H](CC(C)C)NC(=O)[C@H](CCCNC(=N)N)NC(=O)[C@H](CCC(=O)O)NC(=O)[C@@H](NC(=O)[C@H](C)NC(=O)[C@@H]1CSSC[C@H](NC(=O)[C@H](CCCNC(=N)N)NC(=O)CC[C@H](NC(=O)CCCCCCCCCCCCCCCCCCC(=O)O)C(=O)O)C(=O)NCC(=O)N[C@@H]([C@@H](C)O)C(=O)N[C@@H](C)C(=O)N[C@@H]([C@@H](C)O)C(=O)N1)[C@@H](C)O)[C@@H](C)O [Compound 48, [19CD]-isoGlu-R-C( )-GTAT-C( )-ATERLAHFLTRSSF-Gly(Me)-A-Ile(Me)-LSSTEVGSTT-Hyp-NH2] ({C20 diacid-γGlu}-RCGTATCATERLAHFLTRSSF[Sar]A[NMeI]LSSTEVGSTT[Hyp]-NH2; disulfide 2-7)"
